Key:
wildtype tobacco = experiment: Auxinic herbicide cross tolerance of stacked tobacco, wildtype; format: in vivo, Nicotiana tabacum; details: KY160 wildtype control
Experimental: Homozygous AAD-12 (v1) (pDAS1580) and AAD-1 (v3) (pDAB721) plants (see PCT/US2005/014737 for the latter) were both reciprocally crossed and F1 seed was collected. The F1 seed from two reciprocal crosses of each gene were stratified and treated 4 reps of each cross were treated under the same spray regimen as used for the other testing with one of the following treatments: 70, 140, 280 g ac/ha fluroxypyr (selective for the AAD-12 (v1) gene); 280, 560, 1120 g ae/ha R-dichloroprop (selective for the AAD-1 (v3) gene); or 560, 1120, 2240 g ae/ha 2,4-D DMA (to confirm 2,4-D tolerance). Homozygous T2 plants of each gene were also planted for use as controls. Plants were graded at 3 and 14 DAT.

[1] = tested on: AAD-12 (v1) pDAB4101 corn events (4101(0)003.R.003.AF and 4101(0)005.R001.AF); experiment: Field tolerance of corn: visual injury and brace root injury, AAD-12 events; format: in vivo, Zea mays; details: for % Visual Injury 14DAT / Brace Root Injury Rating (0-10 scale) 28DAT: 280 g ae/ha
Experimental: Seeds were planted with cone planter on 40-inch row spacing at Wayside and 30 inch spacing at Fowler. […] Herbicide treatments were 2,4-D (dimethylamine salt) at 1120, 2240 and 4480 g ae/ha, triclopyr at 840 g ae/ha, fluroxypyr at 280 g ae/ha and an untreated control. The AAD-12 (v1) events contained the AHAS gene as a selectable marker. The F2 corn events were segregating so the AAD-12 (v1) plants were treated with imazethapyr at 70 g ae/ha to remove the null plants. Herbicide treatments were applied when corn reached the V6 stage using compressed air backpack sprayer delivering 187 L/ha carrier volume at 130-200 kpa pressure. […]

[2] = tested on: wild-type canola (Nex710); experiment: Field tolerance of canola, wild-type; format: in vivo, Brassica napus
Experimental: Field level tolerance trial was conducted on two AAD-12 (v1) events 3759(20)018.001 and 3759(18)030.001 and a wild-type canola (Nex710) in Fowler, Ind. The experimental design was a randomized complete block design with 3 replications. Herbicide treatments were 2,4-D (dimethylamine salt) at 280, 560, 1120, 2240 and 4480 g ac/ha, triclopyr at 840 g ae/ha, fluroxypyr at 280 g ae/ha and an untreated control. Within each herbicide treatment, single 20 ft row/event for event 3759(18)030.0011, 3759(18)018.001 and wild-type line (Nex710) were planted with a 4 row drill on 8 inch row spacing. Herbicide treatments were applied when canola reached the 4-6 leaf stage using compressed air backpack sprayer delivering 187 L/ha carrier volume at 130-200 kpa pressure. Visual injury ratings were taken at 7, 14 and 21 days after application.

[3] = tested on: Roundup Ready (RR) control corn hybrid (2P782); experiment: Field tolerance of corn: visual injury and brace root injury, control hybrid; format: in vivo, Zea mays
Experimental: Seeds were planted with cone planter on 40-inch row spacing at Wayside and 30 inch spacing at Fowler. […] Herbicide treatments were 2,4-D (dimethylamine salt) at 1120, 2240 and 4480 g ae/ha, triclopyr at 840 g ae/ha, fluroxypyr at 280 g ae/ha and an untreated control. The AAD-12 (v1) events contained the AHAS gene as a selectable marker. The F2 corn events were segregating so the AAD-12 (v1) plants were treated with imazethapyr at 70 g ae/ha to remove the null plants. Herbicide treatments were applied when corn reached the V6 stage using compressed air backpack sprayer delivering 187 L/ha carrier volume at 130-200 kpa pressure. Visual injury ratings were taken at 7, 14 and 21 days after treatment.

[4] = tested on: AAD-12 (v1) T1 tobacco plants; experiment: Cross tolerance of T1 tobacco to phenoxy and pyridyloxy auxin herbicides; format: in vivo, Nicotiana tabacum
Source text: Two to four T0 individuals surviving high rates of 2,4-D and fluroxypyr were saved from each event and allowed to self fertilize in the greenhouse to give rise to T1 seed. The T1 seed was stratified, and sown into selection trays much like that of Arabidopsis (Example 7.4), followed by selective removal of untransformed nulls in this segregating population with 560 g ai/ha glufosinate (PAT gene selection). Survivors were transferred to individual 3-inch pots in the greenhouse. These lines provided high levels of resistance to 2,4-D in the T0 generation. Improved consistency of response is anticipated in T1 plants not having come directly from tissue culture. These plants were compared against wildtype KY160 tobacco. All plants were sprayed with a track sprayer set at 187 L/ha. The plants were sprayed from a range of 140-2240 g ac/ha 2,4-D dimethylamine salt (DMA), 70-1120 g ace/ha triclopyr or 35-560 g ae/ha fluroxypyr. All applications were formulated in water. Each treatment was replicated 2-4 times. Plants were evaluated at 3 and 14 days after treatment. Plants were assigned injury rating with respect to stunting, chlorosis, and necrosis. The T1 generation is segregating, so some variable response is expected due to difference in zygosity.

Nc1c(Cl)c(F)nc(OCC(=O)O)c1Cl [Fluroxypyr]
Average % injury 14 DAT (wildtype tobacco; 70 g ae/ha): 40%
Average % injury 14 DAT (wildtype tobacco; 140 g ae/ha): 65%
% Visual Injury 14DAT ([1]; AAD-12 4101(0)003.R.003.AF): 1%
% Visual Injury 14DAT ([1]; AAD-12 4101(0)005.001.AF): 5%
Brace Root Injury Rating (0-10 scale) 28DAT ([1]; AAD-12 event 4101(0)003.R.003.AF): 0
Brace Root Injury Rating (0-10 scale) 28DAT ([1]; AAD-12 event 4101(0)005.001.AF): 0
brace root injury ([1]; Fluroxypyr at 280 g ae/ha): no brace root injury
visual injury, average ([1]; Fluroxypyr at 280 g ae/ha, 5DAT): 8%
visual injury ([2]; Fluroxypyr at 280 g ae/ha, 14DAA): 37%
% Visual Injury at 14 DAT ([2]; Wild Type (Nex710), 280 GM AE/HA): 37 ab %
% Visual Injury 14DAT ([3]; 2P782 control, 280 g ae/ha): 11%
brace root injury ([3]; Fluroxypyr at 280 g ae/ha): moderate brace root swelling and wandering
visual injury ([3]; Fluroxypyr at 280 g ae/ha, 14 DAT): 11%
Brace Root Injury Rating (0-10 scale) 28DAT ([3]; Wild-type NK603, 280 g ae/ha): 2
injury ([4]; 35-560 g ae/ha fluroxypyr): greatest injury
Average % Injury of Replicates 14 DAT ([4]; T1 1580(1)-004, 35 g ae/ha): 0%
Average % Injury of Replicates 14 DAT ([4]; T1 1580(1)-004, 140 g ae/ha): 0%
Average % Injury of Replicates 14 DAT ([4]; T1 1580(1)-004, 560 g ae/ha): 3%
Average % Injury of Replicates 14 DAT ([4]; T1 1580(1)-018, 35 g ae/ha): 8%
Average % Injury of Replicates 14 DAT ([4]; T1 1580(1)-018, 140 g ae/ha): 10%
Average % Injury of Replicates 14 DAT ([4]; T1 1580(1)-018, 560 g ae/ha): 18%
